# How the values were obtained:
# Type in all cases: in vivo
# Long Evans rats [1] = assay: Cocaine self-administration under PR schedule of reinforcement
# Protocol: In Vivo Studies. Effect on Cocaine-Self administration. These studies were performed using Long Evans rats using standard protocols (Quinlan M. G. et al. Psychopharmacol. 2004, 175, 53-59; Ranaldi, R. et al. Behav. Pharmacol. 2011, 22, 347-353). Cocaine self-administration sessions were conducted in sixteen operant chambers; eight measuring 30×22×27 cm (l×w×h) and the other eight measuring 26×26×30 cm (l×w×h). Each chamber was situated inside a sound-attenuating box and was equipped with two retractable levers, a white light above each lever, and a tether. Polyethylene tubing, covered by the tether, connected the animal, through a fluid swivel, to a syringe in a syringe pump (Razel, 3.33 rpm). […] Each animal was tested with one dose of the D3 antagonist, randomly determined, at as many of the three cocaine doses as possible. After a particular test the animal's cocaine dose was changed to another one (randomly determined) and its baseline BP on the new dose was established. BP during the test session was expressed as the percentage of the average BP obtained during the last three baseline sessions. Percentage of baseline BP and final ratio (i.e. the number of lever presses required for the BP infusion) were analyzed using separate two-way analyses of variance (ANOVAs) with dose of 113 and dose of cocaine as between-groups factors. […]
# Long Evans rats [2] = assay: Food self-administration under PR schedule of reinforcement; details: 3.75 mg dose vs 0, t(7)=0.43, p=0.66
# Protocol: In Vivo Studies. Effect on Food-Self administration. These studies were performed using Long Evans rats using standard protocols. Training and testing took place in ventilated and sound-attenuated operant chambers measuring 30×21×18 cm. Each chamber contained two levers, one light above each of the levers, and a food trough. Each lever was positioned 2.5 cm from the rod floor and the food trough (measuring 5×5 cm) was centered between the two levers. A different set of animals (n=8) was trained to press a lever reinforced by food under a FR1 schedule of reinforcement. […] Percentage of baseline BPs for food self-administration was analyzed using a dependent measures t-test comparing the 0 and 3.75 mg doses of 113.
# Long Evans rats [3] = assay: Spontaneous locomotor activity; details: all doses tested (3.75, 7.5, 15 mg/kg), any time during the test sessions
# Protocol: (§1) In Vivo Studies. Effect on Locomotor Activity. These studies were performed using Long Evans rats using standard protocols. Locomotor activity chambers measuring 43×43×30 cm (l×w×h) were used for the locomotor activity experiments. Each chamber was equipped with eight photo-emitters positioned along the length of the chamber 6 cm above the floor, each paired directly opposite a photocell. Locomotor activity counts were registered when adjacent beams were broken consecutively. Before receiving any drug, the animals (n=96) were placed in locomotor activity chambers for habituation, for 2 hours per day for 3 consecutive days. Based on the locomotor activity score obtained during the third habituation session, animals were assigned into one of […]. […] For the 113 alone experiments, each of the four groups received one of 4 doses of 113 (0, 3.75, 7.5 or 15 mg/kg) 10 minutes prior to placement in the activity chambers. For the 113 cocaine interaction experiments, each of 4 groups were injected with one of the 4 doses of the compound (0, 3.75, 7.5 or 15 mg/kg) 10 minutes before receiving 10 mg/kg of cocaine as the second injection. […] The locomotor counts in the 113 alone and 113/cocaine experiments were analyzed using two separate mixed-design ANOVAs with 113 dose (between-groups) and 5-min bins (repeated measures) as factors. […]
# Long Evans rats [4] = assay: Cocaine-induced locomotor activity; details: 3.75, 7.5 or 15 mg/kg 10 minutes before 10 mg/kg of cocaine; p<0.05
# Protocol: as §1
# Rats = assay: Cue-induced reinstatement of cocaine-seeking; details: ip injection of one of 3 doses 20 minutes before 1-h reinstatement session
# Protocol: In Vivo Studies. Effect on Reinstatement. Rats were trained to self-administer cocaine (1.0 mg/kg/injection) under a FR1 schedule of reinforcement in daily 3-h sessions and, after stable responding was established (as described above) the schedule was changed to FR3. After stable responding under the FR3 schedule was established, extinction training began. Stable responding was defined as follows: 12 consecutive sessions in which total rewards per session was greater than 20 and in which total rewards per session for the last three sessions was within ±10% of the mean of the three sessions. […] After extinction criteria were met each rat was tested in one 1-h reinstatement session; each rat received an ip injection of vehicle or one of 3 doses of the test compound and 20 minutes later was placed in the operant chamber. At the start of the reinstatement session the cocaine-associated cues (light on for 20 s and pump on for 4.5 s) were presented twice, once at 25 sec and again at 2 min into the session. Presses on the active lever illuminated the light and activated the pump.
smiles,measurement,setting,value
"CC(C)(C)c1nc(N2CCN(CCCCNC(=O)c3cn4ccccc4n3)CC2)cc(C(F)(F)F)n1 [Compound 113, N-(4-(4-(2-(tert-Butyl)-6-(trifluoromethyl)pyrimidin-4-yl)piperazin-1-yl)butyl)imidazo[1,2-a]pyridine-2-carboxamide]","percentage of baseline BP for cocaine under PR schedule, dose relation","Long Evans rats [1]; 3.75, 7.5 and 15 mg/kg intraperitoneally 10 minutes prior to session, cocaine 0.375, 0.75 or […]",dose-related reduction in the percentage of baseline BPs
same,percentage of baseline BPs for cocaine compared to vehicle (Tukey post hoc),"Long Evans rats [1]; 3.75, 7.5 or 15 mg of 113, ps<0.05",significant reductions in the percentage of baseline BPs
same,percentage of baseline BP for food self-administration,Long Evans rats [2],did not affect food self-administration
same,"spontaneous locomotor activity, overall",Long Evans rats [3],none of the doses tested produced significant effects on spontaneous locomotor activity
same,cocaine-induced locomotor activity,Long Evans rats [4],significantly reduce cocaine-induced locomotor activity in a dose-related fashion
same,cue-induced reinstatement (presses on the active lever),Rats,strongly reduced in a dose-related fashion

# Source: US9969743B2, “Urea and amide derivatives of aminoalkylpiperazines and use thereof” (Southern Research Institute, priority 2012, dated 2018)
